In general, IC50 refers to the concentration that gives 50% inhibition.

T1 sequence (P51531 with tags, fused parts or gaps): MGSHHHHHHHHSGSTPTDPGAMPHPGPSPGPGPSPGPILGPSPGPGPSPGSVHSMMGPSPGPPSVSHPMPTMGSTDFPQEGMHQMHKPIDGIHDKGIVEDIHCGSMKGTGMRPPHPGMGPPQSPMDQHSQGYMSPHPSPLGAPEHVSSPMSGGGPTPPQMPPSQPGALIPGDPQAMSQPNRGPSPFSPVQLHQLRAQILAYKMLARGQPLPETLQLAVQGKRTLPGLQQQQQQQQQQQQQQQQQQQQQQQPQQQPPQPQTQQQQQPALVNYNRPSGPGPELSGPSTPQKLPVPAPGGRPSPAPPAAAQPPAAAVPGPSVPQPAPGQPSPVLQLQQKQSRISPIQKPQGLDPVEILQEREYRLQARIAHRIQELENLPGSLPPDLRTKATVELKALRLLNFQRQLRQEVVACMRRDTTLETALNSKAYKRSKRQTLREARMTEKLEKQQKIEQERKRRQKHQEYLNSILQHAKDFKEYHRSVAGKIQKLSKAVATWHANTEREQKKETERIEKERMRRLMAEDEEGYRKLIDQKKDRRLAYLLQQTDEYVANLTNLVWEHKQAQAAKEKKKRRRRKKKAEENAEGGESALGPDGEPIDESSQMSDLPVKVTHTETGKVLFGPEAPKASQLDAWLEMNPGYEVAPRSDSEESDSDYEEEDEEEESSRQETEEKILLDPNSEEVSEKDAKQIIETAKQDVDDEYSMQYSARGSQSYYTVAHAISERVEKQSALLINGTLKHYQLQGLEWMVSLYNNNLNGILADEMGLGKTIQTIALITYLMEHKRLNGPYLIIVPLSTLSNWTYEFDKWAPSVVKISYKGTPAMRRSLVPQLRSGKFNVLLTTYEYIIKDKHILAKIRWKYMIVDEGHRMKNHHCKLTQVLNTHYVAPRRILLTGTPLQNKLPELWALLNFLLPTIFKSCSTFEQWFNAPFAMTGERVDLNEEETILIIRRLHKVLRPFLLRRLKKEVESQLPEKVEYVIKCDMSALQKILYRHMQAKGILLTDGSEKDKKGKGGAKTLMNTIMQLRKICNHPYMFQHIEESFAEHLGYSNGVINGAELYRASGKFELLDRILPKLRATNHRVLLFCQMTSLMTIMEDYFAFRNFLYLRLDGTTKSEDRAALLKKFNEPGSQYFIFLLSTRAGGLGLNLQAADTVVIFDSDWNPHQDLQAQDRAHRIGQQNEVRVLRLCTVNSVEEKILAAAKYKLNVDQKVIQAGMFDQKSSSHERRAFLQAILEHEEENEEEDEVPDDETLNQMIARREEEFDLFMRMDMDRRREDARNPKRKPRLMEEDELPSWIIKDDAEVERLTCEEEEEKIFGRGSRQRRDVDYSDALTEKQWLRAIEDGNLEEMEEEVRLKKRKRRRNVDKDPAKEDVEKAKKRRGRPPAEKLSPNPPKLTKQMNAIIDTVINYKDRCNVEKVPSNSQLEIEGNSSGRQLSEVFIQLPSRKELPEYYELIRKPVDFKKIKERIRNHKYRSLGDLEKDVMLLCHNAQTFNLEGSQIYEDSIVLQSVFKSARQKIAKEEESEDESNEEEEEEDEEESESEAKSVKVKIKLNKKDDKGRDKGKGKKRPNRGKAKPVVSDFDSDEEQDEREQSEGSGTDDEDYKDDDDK

One assay concerns the target T1, FL-SMARCA2 (full-length human SMARCA2 isoform 1) (Homo sapiens, UniProt P51531).
T1 construct: FLAG tag (YKDDDDK) (C); made in house; host or cells: Sf21 insect cells (baculovirus, pFastBacI)
The assay is described as follows: SMARCA2 ATPase activity assay (ADP-Glo, chicken mononucleosome substrate). The format is biochemical. The following applies: Table 3a.1; SMARCA2 5 nM, ATP 250 uM, mononucleosome 10 nM.
Compound `CCn1cc(NC(=O)c2nc3cc(Cl)c(F)cc3[nH]2)ccc1=O` [Compound 32a] displayed an IC50 of over 50 µM.

As to `CCn1cc(NC(=O)[C@@H]2C[C@H](OC)CN2C)ccc1=O` [Compound 3a], the IC50 was over 50 µM.

`CCn1cc(N(C)C(=O)c2cc(Cl)c(Cl)n2C)ccc1=O` [Compound 71a] returned an IC50 of 2.72 µM.

In turn, `CCn1cc(NC(=O)c2ccc3cn[nH]c3n2)ccc1=O` [Compound 38a] displayed an IC50 of over 50 µM.

As to `CCn1cc(NC(=O)n2ncc3ccccc32)ccc1=O` [Compound 31a], the IC50 was over 50 µM.

With `CN1C(=O)CCCC1C(=O)Nc1cc(F)c(=O)n(CCF)c1` (centres unmarked) [Compound 48a], the IC50 was over 50 µM.

`CCn1cc(NC(=O)c2c[nH]c3c(Cl)cccc23)ccc1=O` [Compound 24a] displayed an IC50 of over 50 µM.

`O=C(Nc1ccc(=O)n(CC(F)(F)F)c1)c1nc2cc(F)c(Cl)cc2s1` [Compound 44a]: the IC50 was found to be 42.5 µM.

Compound `CCn1cc(NC(=O)c2c[nH]c3ccccc23)ccc1=O` [Compound 22a] gave an IC50 of over 50 µM.

Compound `CCn1cc(NC(=O)c2cnc(Cl)c(Cl)c2)ccc1=O` [Compound 16a] had a half-maximal inhibitory concentration (IC50) of 26.8 µM.

Staying with this assay, now noted: Table 3b.1; SMARCA2 5 nM, ATP 250 uM, mononucleosome 10 nM.
On to `CCn1cc(NC(=O)C2CCCCC2)ccc1=O` [Compound 12b], for which the IC50 was over 50 µM.

Take `CCn1cc(NC(=O)[C@@H]2CC[C@H](Cl)C2)ccc1=O` [Compound 15b]: the IC50 was over 50 µM.

In turn, `CCn1cc(NC(=O)[C@@H]2CCC[C@@H](Cl)C2)ccc1=O` [Compound 14b] had an IC50 of over 50 µM.

The compound `CCn1cc(NC(=O)C2C(C)(C)C2(C)C)ccc1=O` [Compound 3b] yielded an IC50 of over 50 µM.

Staying with this assay, now noted: Table 3c.1; ATPase assay, enzyme 5 nM, ATP 250 uM, chicken mononucleosome 10 nM, 30 min preincubation.
On to `O=C(Nc1cc(F)c(=O)n(CC(F)F)c1)c1cc(C#Cc2ccncc2)n[nH]1` [Compound 112c], for which the IC50 was over 50 µM.

`COc1ccc(C#Cc2cc(C(=O)Nc3cc(F)c(=O)n(CC(F)F)c3)sc2Cl)cc1` [Compound 44c] yielded an IC50 of 1.04 µM.

`CNCCn1cc(NC(=O)c2cc(F)c(Cl)s2)cc(F)c1=O` [Compound 52c] came in with an IC50 of over 50 µM.

Consider `O=C(Nc1cc(C#CCO)c(=O)n(CC(F)F)c1)c1cc(F)c(Cl)s1` [Compound 4c], for which the IC50 worked out at 6.98 µM.

As to `CN1CCC(C#Cc2cc(C(=O)Nc3cc(F)c(=O)n(CC(F)F)c3)sc2Cl)CC1` [Compound 29c], the concentration for half-maximal inhibition (IC50) amounted to 25.4 µM.

In turn, `O=C(Nc1cc(-c2ncco2)c(=O)n(CC(F)F)c1)c1sc(C(F)(F)F)cc1Cl` [Compound 30c] had an IC50 of over 50 µM.

As to `Cn1cnc(-c2cc(NC(=O)c3sc(C(F)(F)F)cc3Cl)cn(CC(F)F)c2=O)c1` [Compound 27c], the IC50 was over 50 µM.

Staying with this assay, now noted: Table 3.1; ATPase assay, enzyme 5 nM, ATP 250 uM, chicken mononucleosome 10 nM, 30 min preincubation.
On to `CCn1cc(NC(=O)c2cc(Cl)c(OC)s2)ccc1=O` [Compound 116], for which the half-inhibitory concentration (IC50) amounted to 39.3 µM.

Consider `O=C(Nc1ccc(=O)n(CC(F)(F)F)c1)c1cc(Cl)c(Cl)n1CCF` [Compound 85], for which half-maximal inhibition (IC50) was put at 12 µM.

Compound `CCn1cc(NC(=O)c2cn(C(F)(F)F)c(Cl)n2)ccc1=O` [Compound 124] showed an IC50 of over 50 µM.

For `CCn1cc(NC(=O)c2csc(-c3ccc(C)n3C)n2)ccc1=O` [Compound 6], the IC50 is over 50 µM.

`N#Cc1sc(C(=O)Nc2ccc(=O)n(CC(F)F)c2)cc1Cl` [Compound 293] came in with an IC50 of 0.127 µM.

On to `CCn1cc(NC(=O)c2cc(Cl)c(Cl)s2)cc(Cl)c1=O` [Compound 84], for which 0.197 µM corresponded to half-maximal inhibition (IC50).

For the compound `N#Cc1cc(C(=O)Nc2cc(F)c(=O)n(CCF)c2)[nH]c1Cl` [Compound 229], it took 0.602 µM to reach half-maximal inhibition (IC50).

Another assay deals with FL-SMARCA4 (Homo sapiens, UniProt P51532). The assay is described as follows: SMARCA4 ATPase activity assay (ADP-Glo, chicken mononucleosome substrate). The note with it: FL-SMARCA4 IC50, Table 3a.2; SMARCA4 5 nM, ATP 250 uM, mononucleosome 10 nM. For orientation: ADP-Glo first removes unused ATP, then detects ADP through luciferase.
Sequence of FL-SMARCA4 (P51532 whole entry): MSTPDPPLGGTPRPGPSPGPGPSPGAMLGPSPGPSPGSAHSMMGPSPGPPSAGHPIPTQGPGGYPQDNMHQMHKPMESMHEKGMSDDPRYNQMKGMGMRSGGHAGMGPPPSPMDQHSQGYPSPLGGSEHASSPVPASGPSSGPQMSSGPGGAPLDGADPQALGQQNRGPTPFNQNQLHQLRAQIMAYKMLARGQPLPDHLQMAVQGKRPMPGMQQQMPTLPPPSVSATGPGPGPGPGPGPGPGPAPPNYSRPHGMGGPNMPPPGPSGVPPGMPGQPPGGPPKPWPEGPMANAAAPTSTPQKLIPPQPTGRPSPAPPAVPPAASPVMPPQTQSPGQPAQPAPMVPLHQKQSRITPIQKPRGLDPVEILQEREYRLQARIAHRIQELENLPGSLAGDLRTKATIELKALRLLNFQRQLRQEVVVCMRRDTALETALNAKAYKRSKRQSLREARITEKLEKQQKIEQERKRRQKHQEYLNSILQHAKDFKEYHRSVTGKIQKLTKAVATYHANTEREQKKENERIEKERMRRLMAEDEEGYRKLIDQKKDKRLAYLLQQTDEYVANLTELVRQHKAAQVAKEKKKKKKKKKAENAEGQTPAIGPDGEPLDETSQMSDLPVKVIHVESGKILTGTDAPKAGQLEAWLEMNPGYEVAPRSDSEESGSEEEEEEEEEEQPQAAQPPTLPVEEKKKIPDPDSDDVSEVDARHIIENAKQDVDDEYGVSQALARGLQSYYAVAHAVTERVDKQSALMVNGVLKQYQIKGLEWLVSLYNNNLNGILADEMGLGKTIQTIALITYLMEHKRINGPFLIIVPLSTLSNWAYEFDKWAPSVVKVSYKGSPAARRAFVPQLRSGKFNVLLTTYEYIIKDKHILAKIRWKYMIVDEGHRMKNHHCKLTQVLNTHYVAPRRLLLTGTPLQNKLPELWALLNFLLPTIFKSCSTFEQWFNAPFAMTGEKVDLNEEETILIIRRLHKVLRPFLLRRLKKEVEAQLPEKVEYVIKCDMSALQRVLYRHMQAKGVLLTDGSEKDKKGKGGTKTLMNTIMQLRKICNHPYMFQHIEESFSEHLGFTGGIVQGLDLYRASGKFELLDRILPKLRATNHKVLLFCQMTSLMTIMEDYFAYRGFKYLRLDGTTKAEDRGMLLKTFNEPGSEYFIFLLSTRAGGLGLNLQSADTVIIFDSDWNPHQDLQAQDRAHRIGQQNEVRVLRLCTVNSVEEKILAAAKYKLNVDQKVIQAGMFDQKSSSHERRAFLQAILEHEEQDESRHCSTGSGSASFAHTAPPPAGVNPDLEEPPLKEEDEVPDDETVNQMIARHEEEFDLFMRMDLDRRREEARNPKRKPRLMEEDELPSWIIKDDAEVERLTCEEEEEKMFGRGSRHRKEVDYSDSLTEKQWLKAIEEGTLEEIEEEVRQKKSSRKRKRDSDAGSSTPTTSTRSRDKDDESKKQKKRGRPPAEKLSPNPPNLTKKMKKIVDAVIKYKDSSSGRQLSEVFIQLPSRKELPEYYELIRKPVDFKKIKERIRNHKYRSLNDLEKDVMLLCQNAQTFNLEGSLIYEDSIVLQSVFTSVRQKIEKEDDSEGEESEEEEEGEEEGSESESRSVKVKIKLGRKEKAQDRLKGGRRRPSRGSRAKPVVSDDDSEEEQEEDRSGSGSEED
As for `CCn1cc(NC(=O)c2nc3cc(Cl)c(F)cc3[nH]2)ccc1=O` [Compound 32a], the IC50 was over 50 µM.

`CCn1cc(NC(=O)[C@@H]2C[C@H](OC)CN2C)ccc1=O` [Compound 3a] showed an IC50 of over 50 µM.

`CCn1cc(N(C)C(=O)c2cc(Cl)c(Cl)n2C)ccc1=O` [Compound 71a] had an IC50 of 39.6 µM.

For the compound `CCn1cc(NC(=O)c2ccc3cn[nH]c3n2)ccc1=O` [Compound 38a], the IC50 was over 50 µM.

In turn, `CCn1cc(NC(=O)n2ncc3ccccc32)ccc1=O` [Compound 31a] yielded an IC50 of over 50 µM.

Compound `CN1C(=O)CCCC1C(=O)Nc1cc(F)c(=O)n(CCF)c1` (centres unmarked) [Compound 48a] displayed an IC50 of over 50 µM.

As to `CCn1cc(NC(=O)c2c[nH]c3c(Cl)cccc23)ccc1=O` [Compound 24a], the IC50 was over 50 µM.

On to `O=C(Nc1ccc(=O)n(CC(F)(F)F)c1)c1nc2cc(F)c(Cl)cc2s1` [Compound 44a], for which the IC50 is over 50 µM.

`CCn1cc(NC(=O)c2c[nH]c3ccccc23)ccc1=O` [Compound 22a] showed an IC50 of over 50 µM.

As for `CCn1cc(NC(=O)c2cnc(Cl)c(Cl)c2)ccc1=O` [Compound 16a], the IC50 is over 50 µM.

Still in this assay, the particulars now being: FL-SMARCA4 IC50, Table 3b.2; SMARCA4 5 nM, ATP 250 uM, mononucleosome 10 nM.
For the compound `CCn1cc(NC(=O)C2CCCCC2)ccc1=O` [Compound 12b], the IC50 was over 50 µM.

Take `CCn1cc(NC(=O)[C@@H]2CC[C@H](Cl)C2)ccc1=O` [Compound 15b]: the IC50 is over 50 µM.

For the compound `CCn1cc(NC(=O)[C@@H]2CCC[C@@H](Cl)C2)ccc1=O` [Compound 14b], the IC50 is over 50 µM.

Compound `CCn1cc(NC(=O)C2C(C)(C)C2(C)C)ccc1=O` [Compound 3b] yielded an IC50 of over 50 µM.

The same assay, now with this note: FL-SMARCA4 IC50, Table 3.2; ATPase assay, enzyme 5 nM, ATP 250 uM, chicken mononucleosome 10 nM, 30 min preincubation.
Compound `CCn1cc(NC(=O)c2cc(Cl)c(OC)s2)ccc1=O` [Compound 116] yielded an IC50 of over 50 µM.

Compound `O=C(Nc1ccc(=O)n(CC(F)(F)F)c1)c1cc(Cl)c(Cl)n1CCF` [Compound 85] displayed an IC50 of 34.7 µM.

`CCn1cc(NC(=O)c2cn(C(F)(F)F)c(Cl)n2)ccc1=O` [Compound 124] gave an IC50 of over 50 µM.

Take `CCn1cc(NC(=O)c2csc(-c3ccc(C)n3C)n2)ccc1=O` [Compound 6]: the IC50 is over 50 µM.

The compound `N#Cc1sc(C(=O)Nc2ccc(=O)n(CC(F)F)c2)cc1Cl` [Compound 293] displayed an IC50 of 0.3 µM.

`CCn1cc(NC(=O)c2cc(Cl)c(Cl)s2)cc(Cl)c1=O` [Compound 84]: it took 1.12 µM to reach half-maximal inhibition (IC50).

On to `N#Cc1cc(C(=O)Nc2cc(F)c(=O)n(CCF)c2)[nH]c1Cl` [Compound 229], for which the IC50 is 1.88 µM.

Still in this assay, the particulars now being: FL-SMARCA4 IC>50, Table 3c.2; ATPase assay, enzyme 5 nM, ATP 250 uM, chicken mononucleosome 10 nM, 30 min preincubation.
`O=C(Nc1cc(F)c(=O)n(CC(F)F)c1)c1cc(C#Cc2ccncc2)n[nH]1` [Compound 112c] yielded a half-maximal inhibitory concentration (IC50) of over 50 µM.

Regarding `COc1ccc(C#Cc2cc(C(=O)Nc3cc(F)c(=O)n(CC(F)F)c3)sc2Cl)cc1` [Compound 44c], 2.19 µM corresponded to half-maximal inhibition (IC50).

Compound `CNCCn1cc(NC(=O)c2cc(F)c(Cl)s2)cc(F)c1=O` [Compound 52c] returned a half-inhibitory concentration (IC50) of over 50 µM.

`O=C(Nc1cc(C#CCO)c(=O)n(CC(F)F)c1)c1cc(F)c(Cl)s1` [Compound 4c] displayed an IC50 of 18.1 µM.

Compound `CN1CCC(C#Cc2cc(C(=O)Nc3cc(F)c(=O)n(CC(F)F)c3)sc2Cl)CC1` [Compound 29c] registered an IC50 of 41.4 µM.

Regarding `O=C(Nc1cc(-c2ncco2)c(=O)n(CC(F)F)c1)c1sc(C(F)(F)F)cc1Cl` [Compound 30c], the IC50 is over 50 µM.

`Cn1cnc(-c2cc(NC(=O)c3sc(C(F)(F)F)cc3Cl)cn(CC(F)F)c2=O)c1` [Compound 27c] registered an IC50 of over 50 µM.

Values taken from patent US20220356174A1, “PYRIDIN-2-ONE COMPOUNDS USEFUL AS SMARCA2 ANTAGONISTS” (Epizyme, Inc., priority 2018, published 2022).
